Reference: patent US20020137929A1, “1 - (3-heterocyclylphenyl) isothiourea, -isourea, -guanidine and -amidine herbicidal agents” (Intellectual Property Department, BASF Aktiengesellschaft, priority 1998, published 2002)

Legend:
[1] = system: TRZAWR (Wheat, Winter, cv Riband); experiment: Postemergence herbicidal evaluation; assay type: in vivo, Triticum aestivum; conditions: postemergence
Method in brief: (§1)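 Two-week-old seedlings sprayed with compound in 50/50 acetone/water plus 0.5% TWEEN 20, at about 0.0156 to 0.500 kg/ha, nozzle at 40 psi. Kept in greenhouse; rated visually 4-5 weeks after treatment on a 0-9 scale versus control, repeat tests averaged.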

ORYSAT (Rice, Tebonnet) [2] = experiment: Rice tolerance to post-transplant applications, flooded paddy conditions (Table III); assay type: in vivo, Oryza sativa, (L.) Tebonnet; conditions: in vivo
Method in brief: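 Two ten-day-old Tebonnet seedlings transplanted into flooded silt loam (water 1.5 to 3 cm above soil); three days later the water surface was treated with compound in aqueous/acetone 50/50 at about 0.0313 to 0.500 kg/ha. Visual 0-9 injury rating versus control after three to four weeks in greenhouse.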

[3] = system: IPOHE (Morningglory, Ivyleaf); experiment: Postemergence herbicidal evaluation; assay type: in vivo, Ipomoea hederacea; conditions: postemergence
Method in brief: as §1

[4] = system: TRZAWR (Wheat, Winter, cv Riband); experiment: Preemergence herbicidal evaluation; assay type: in vivo, Triticum aestivum; conditions: rated 4-5 weeks after treatment
Method in brief: (§2)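 Scores (0–9) reflect visual comparison with control plants for stand, vigor, malformation, size and chlorosis. Compound was applied to the soil after sowing, before emergence, as an aqueous acetone spray (about 0.0156–0.500 kg/ha), and cups were kept in a greenhouse for 4–5 weeks.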

AMBEL (Ragweed, Common) = experiment: Preemergence herbicidal evaluation; assay type: in vivo, Ambrosia artemisifolia; conditions: rated 4-5 weeks after treatment
Method in brief: as §2

[5] = system: GLXMAW (Soybean, Williams); experiment: Preemergence herbicidal evaluation; assay type: in vivo, Glycine max, (L.) Merr. cv Williams; conditions: rated 4-5 weeks after treatment
Method in brief: as §2

ABUTH (Velvetleaf) [6] = experiment: Postemergence herbicidal evaluation; assay type: in vivo, Abutilon theophrasti; conditions: postemergence
Method in brief: as §1

ABUTH (Velvetleaf) [7] = experiment: Preemergence herbicidal evaluation; assay type: in vivo, Abutilon theophrasti; conditions: rated 4-5 weeks after treatment
Method in brief: as §2

[8] = system: SAGPY (Arrowhead (Pygmaea)); experiment: Preemergence weed control under flooded paddy conditions; assay type: in vivo, Sagittaria pygmaea; conditions: rated 3-4 weeks after treatment
Method in brief: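 Flooded-pot preemergence screen with silt loam and seeds in the upper 0.5 cm. Dose about 0.0313 to 0.500 kg/ha, delivered into flood water; visual 0-9 score after 3 to 4 weeks.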

CASOB (Sicklepod) = experiment: Preemergence herbicidal evaluation; assay type: in vivo, Cassia obtusifolia; conditions: rated 4-5 weeks after treatment
Method in brief: as §2

ZEAMX (Corn, Field) = experiment: Postemergence herbicidal evaluation; assay type: in vivo, Zea mays; conditions: postemergence
Method in brief: as §1

GALAP (Galium) = experiment: Preemergence herbicidal evaluation; assay type: in vivo, Galium aparine; conditions: rated 4-5 weeks after treatment
Method in brief: as §2

ORYSAT (Rice, Tebonnet) [9] = experiment: Preemergence herbicidal evaluation; assay type: in vivo, Oryza sativa, (L.) Tebonnet; conditions: rated 4-5 weeks after treatment
Method in brief: as §2

CCOC(=O)CN1C(=O)C(Cc2ccccc2OCC(=O)O)S/C1=N/c1cc(-n2c(=O)cc(C(F)(F)F)n(C)c2=O)c(F)cc1Cl (stereo not shown) [Compound 113, 5-[o-(Carboxymethoxy)benzyl]-2-{{2-chloro-5-[3,6-dihydro-3-methyl-2,6-dioxo-4-(trifluoromethyl)-1(2H)-pyrimidinyl]-4-fluorophenyl}imino}-4-oxo-3-thiazolidineacetic acid, 3-ethyl ester]
3.0: Herbicidal rating TRZAWR ([1]; rate 0.0630 kg/ha) | Preemergence herbicidal rating GALAP (GALAP (Galium); rate 0.2500 kg/ha)
1.0: Preemergence herbicidal rating GLXMAW ([5]; rate 0.0313 kg/ha) | Preemergence herbicidal rating ABUTH (ABUTH (Velvetleaf) [7]; rate 0.0313 kg/ha) | Preemergence herbicidal rating ABUTH (ABUTH (Velvetleaf) [7]; rate 0.0625 kg/ha) | Preemergence herbicidal rating GALAP (GALAP (Galium); rate 0.1250 kg/ha)
2.0: Herbicidal rating TRZAWR ([1]; rate 0.0158 kg/ha) | Herbicidal rating TRZAWR ([1]; rate 0.0315 kg/ha) | Preemergence herbicidal rating AMBEL (AMBEL (Ragweed, Common); rate 0.2500 kg/ha) | Preemergence herbicidal rating GLXMAW ([5]; rate 0.2500 kg/ha)
4.5: Herbicidal rating ZEAMX (ZEAMX (Corn, Field); rate 0.0315 kg/ha) | Herbicidal rating ZEAMX (ZEAMX (Corn, Field); rate 0.0630 kg/ha)
9.0: Herbicidal rating IPOHE ([3]; rate 0.0315 kg/ha) | Herbicidal rating IPOHE ([3]; rate 0.0630 kg/ha) | Herbicidal rating ABUTH (ABUTH (Velvetleaf) [6]; rate 0.0158 kg/ha) | Herbicidal rating ABUTH (ABUTH (Velvetleaf) [6]; rate 0.0315 kg/ha) | Herbicidal rating ABUTH (ABUTH (Velvetleaf) [6]; rate 0.0630 kg/ha) | Preemergence herbicidal rating ABUTH (ABUTH (Velvetleaf) [7]; rate 0.1250 kg/ha) | Preemergence herbicidal rating ABUTH (ABUTH (Velvetleaf) [7]; rate 0.2500 kg/ha) | SAGPY herbicidal effect rating ([8]; 0.1250 kg/ha) | SAGPY herbicidal effect rating ([8]; 0.2500 kg/ha)
0.0: ORYSAT herbicidal effect rating (rice tolerance) (ORYSAT (Rice, Tebonnet) [2]) | Preemergence herbicidal rating TRZAWR ([4]; rate 0.0156 kg/ha) | Preemergence herbicidal rating TRZAWR ([4]; rate 0.0313 kg/ha) | Preemergence herbicidal rating TRZAWR ([4]; rate 0.0625 kg/ha) | Preemergence herbicidal rating TRZAWR ([4]; rate 0.1250 kg/ha) | Preemergence herbicidal rating TRZAWR ([4]; rate 0.2500 kg/ha) | Preemergence herbicidal rating AMBEL (AMBEL (Ragweed, Common); rate 0.0156 kg/ha) | Preemergence herbicidal rating AMBEL (AMBEL (Ragweed, Common); rate 0.0313 kg/ha) | Preemergence herbicidal rating AMBEL (AMBEL (Ragweed, Common); rate 0.0625 kg/ha) | Preemergence herbicidal rating AMBEL (AMBEL (Ragweed, Common); rate 0.1250 kg/ha) | Preemergence herbicidal rating GLXMAW ([5]; rate 0.0156 kg/ha) | Preemergence herbicidal rating GLXMAW ([5]; rate 0.0625 kg/ha) | Preemergence herbicidal rating GLXMAW ([5]; rate 0.1250 kg/ha) | Preemergence herbicidal rating ABUTH (ABUTH (Velvetleaf) [7]; rate 0.0156 kg/ha) | Preemergence herbicidal rating CASOB (CASOB (Sicklepod); rate 0.0156 kg/ha) | Preemergence herbicidal rating CASOB (CASOB (Sicklepod); rate 0.0313 kg/ha) | Preemergence herbicidal rating CASOB (CASOB (Sicklepod); rate 0.0625 kg/ha) | Preemergence herbicidal rating CASOB (CASOB (Sicklepod); rate 0.1250 kg/ha) | Preemergence herbicidal rating CASOB (CASOB (Sicklepod); rate 0.2500 kg/ha) | Preemergence herbicidal rating GALAP (GALAP (Galium); rate 0.0156 kg/ha) | Preemergence herbicidal rating GALAP (GALAP (Galium); rate 0.0313 kg/ha) | Preemergence herbicidal rating GALAP (GALAP (Galium); rate 0.0625 kg/ha) | Preemergence herbicidal rating ORYSAT (ORYSAT (Rice, Tebonnet) [9]; rate 0.0156 kg/ha) | Preemergence herbicidal rating ORYSAT (ORYSAT (Rice, Tebonnet) [9]; rate 0.0313 kg/ha) | Preemergence herbicidal rating ORYSAT (ORYSAT (Rice, Tebonnet) [9]; rate 0.0625 kg/ha) | Preemergence herbicidal rating ORYSAT (ORYSAT (Rice, Tebonnet) [9]; rate 0.1250 kg/ha) | Preemergence herbicidal rating ORYSAT (ORYSAT (Rice, Tebonnet) [9]; rate 0.2500 kg/ha)
7.0: Herbicidal rating IPOHE ([3]; rate 0.0158 kg/ha)
6.0: SAGPY herbicidal effect rating ([8]; 0.0625 kg/ha)
4.0: SAGPY herbicidal effect rating ([8]; 0.0313 kg/ha) | Herbicidal rating ZEAMX (ZEAMX (Corn, Field); rate 0.0158 kg/ha)
